Legend:
Assay in all cases: radiometric filter-binding kinase assay
MYLK (human) = MYLK (human) (UniProt Q15746)
TTK (human) = TTK (human) (UniProt P33981)
LCK (mouse) = conditions: accession and sequence are those of the human protein
NTRK1 (human) = NTRK1 (human) (UniProt P04629)
PRKCZ (human) = PRKCZ (human) (UniProt Q05513)
CSK (human) = CSK (human) (UniProt P41240)
INSRR (human) = INSRR (human) (UniProt P14616)
AURKB (human) = AURKB (human) (UniProt Q96GD4)
MAPK1 (human) = MAPK1 (human) (UniProt P28482)
MAP2K2 (human) = MAP2K2 (human) (UniProt P36507)
FGFR1 (human) = FGFR1 (human) (UniProt P11362)
PHKG1 (human) = PHKG1 (human) (UniProt Q16816)
Chain of PHKG1 (human) (Q16816 whole entry, looked up): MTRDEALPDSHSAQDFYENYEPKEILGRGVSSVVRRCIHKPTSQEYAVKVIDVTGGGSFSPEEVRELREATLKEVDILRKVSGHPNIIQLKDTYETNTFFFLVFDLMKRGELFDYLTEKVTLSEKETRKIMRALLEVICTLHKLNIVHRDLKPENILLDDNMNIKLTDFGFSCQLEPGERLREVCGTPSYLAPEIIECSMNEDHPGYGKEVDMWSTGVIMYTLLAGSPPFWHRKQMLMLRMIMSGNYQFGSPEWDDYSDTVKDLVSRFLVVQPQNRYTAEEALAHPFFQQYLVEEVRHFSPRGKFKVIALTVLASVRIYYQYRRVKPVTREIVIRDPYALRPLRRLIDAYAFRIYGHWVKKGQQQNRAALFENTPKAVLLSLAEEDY

MINK1 (human) = MINK1 (human) (UniProt Q8N4C8)
GSK3B (human) = GSK3B (human) (UniProt P49841)
MARK4 (human) = MARK4 (human) (UniProt Q96L34)
EEF2K (human) = EEF2K (human) (UniProt O00418)
MAPK13 (human) = MAPK13 (human) (UniProt O15264)
MAP3K9 (human) = MAP3K9 (human) (UniProt P80192)
RPS6KA1 KD1 KD2 (human) = RPS6KA1 KD1 KD2 (human) (UniProt Q15418)
Chain of RPS6KA1 KD1 KD2 (human) (Q15418 whole entry, looked up): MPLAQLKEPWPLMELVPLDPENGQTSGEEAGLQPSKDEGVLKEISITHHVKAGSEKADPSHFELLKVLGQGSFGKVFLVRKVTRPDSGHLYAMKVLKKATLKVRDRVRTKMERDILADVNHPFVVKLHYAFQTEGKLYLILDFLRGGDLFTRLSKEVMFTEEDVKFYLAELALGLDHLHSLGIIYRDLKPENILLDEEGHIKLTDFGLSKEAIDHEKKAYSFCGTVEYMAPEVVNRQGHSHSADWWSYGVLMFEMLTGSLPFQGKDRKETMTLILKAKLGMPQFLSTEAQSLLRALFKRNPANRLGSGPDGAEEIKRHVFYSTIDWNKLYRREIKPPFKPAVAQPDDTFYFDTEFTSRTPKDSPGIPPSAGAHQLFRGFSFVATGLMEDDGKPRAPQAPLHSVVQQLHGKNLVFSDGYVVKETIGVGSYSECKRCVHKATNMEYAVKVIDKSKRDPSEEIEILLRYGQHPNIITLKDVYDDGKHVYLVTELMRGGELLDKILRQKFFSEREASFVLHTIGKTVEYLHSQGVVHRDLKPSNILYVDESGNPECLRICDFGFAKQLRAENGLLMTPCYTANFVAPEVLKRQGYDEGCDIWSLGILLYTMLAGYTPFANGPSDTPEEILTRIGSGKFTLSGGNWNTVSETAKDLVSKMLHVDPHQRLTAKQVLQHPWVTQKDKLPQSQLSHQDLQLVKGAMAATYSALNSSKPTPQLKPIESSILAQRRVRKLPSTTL

SRC (human) = SRC (human) (UniProt P12931)
Chain of SRC (human) (P12931 whole entry, looked up): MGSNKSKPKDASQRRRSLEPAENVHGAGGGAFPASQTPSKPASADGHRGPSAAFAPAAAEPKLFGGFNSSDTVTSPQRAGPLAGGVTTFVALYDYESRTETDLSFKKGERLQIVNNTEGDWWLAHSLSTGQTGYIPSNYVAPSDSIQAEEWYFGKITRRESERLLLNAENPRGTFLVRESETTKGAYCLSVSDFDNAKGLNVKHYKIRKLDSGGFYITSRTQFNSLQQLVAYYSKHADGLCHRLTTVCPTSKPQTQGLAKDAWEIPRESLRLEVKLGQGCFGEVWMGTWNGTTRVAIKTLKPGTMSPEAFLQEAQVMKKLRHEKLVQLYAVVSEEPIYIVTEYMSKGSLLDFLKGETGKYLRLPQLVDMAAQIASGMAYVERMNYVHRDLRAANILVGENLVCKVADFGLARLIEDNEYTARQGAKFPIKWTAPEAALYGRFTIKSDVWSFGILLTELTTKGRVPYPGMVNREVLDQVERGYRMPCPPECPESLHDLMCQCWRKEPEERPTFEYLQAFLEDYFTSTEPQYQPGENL

PRKACA (human) = PRKACA (human) (UniProt P17612)
CHEK2 (human) = CHEK2 (human) (UniProt O96017)
MAPKAPK3 (human) = MAPKAPK3 (human) (UniProt Q16644)
Chain of MAPKAPK3 (human) (Q16644 whole entry, looked up): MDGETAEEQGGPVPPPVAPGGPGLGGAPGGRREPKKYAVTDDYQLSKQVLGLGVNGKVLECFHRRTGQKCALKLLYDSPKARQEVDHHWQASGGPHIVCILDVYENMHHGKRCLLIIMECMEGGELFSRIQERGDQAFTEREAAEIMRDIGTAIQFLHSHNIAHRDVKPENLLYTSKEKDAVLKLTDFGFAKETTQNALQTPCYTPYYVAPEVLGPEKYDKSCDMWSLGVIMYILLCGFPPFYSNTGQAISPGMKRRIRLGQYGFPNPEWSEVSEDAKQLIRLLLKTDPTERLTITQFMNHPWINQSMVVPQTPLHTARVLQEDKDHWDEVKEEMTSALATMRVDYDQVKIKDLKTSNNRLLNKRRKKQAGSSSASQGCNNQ

MELK (human) = MELK (human) (UniProt Q14680)
DAPK1 (human) = DAPK1 (human) (UniProt P53355)
ROCK2 (rat) = conditions: accession and sequence are those of the human protein
EPHB3 (human) = EPHB3 (human) (UniProt P54753)
PRKAA1 or PRKAA2 (rat) = conditions: accession and sequence are those of the human protein
ERBB4 (human) = ERBB4 (human) (UniProt Q15303)
MKNK2 (human) = MKNK2 (human) (UniProt Q9HBH9)
CDK2 CCNA2 (human) = CDK2 CCNA2 (human) (UniProt P20248+P24941)
MKNK1 (human) = MKNK1 (human) (UniProt Q9BUB5)
CSNK2A1 (human) = CSNK2A1 (human) (UniProt P68400)
[1] = molecular target: STK11 CAB39 STRADA (human) (UniProt Q9Y376+Q7RTN6+Q15831)
IKBKB (human) = IKBKB (human) (UniProt O14920)
Chain of IKBKB (human) (O14920 whole entry, looked up): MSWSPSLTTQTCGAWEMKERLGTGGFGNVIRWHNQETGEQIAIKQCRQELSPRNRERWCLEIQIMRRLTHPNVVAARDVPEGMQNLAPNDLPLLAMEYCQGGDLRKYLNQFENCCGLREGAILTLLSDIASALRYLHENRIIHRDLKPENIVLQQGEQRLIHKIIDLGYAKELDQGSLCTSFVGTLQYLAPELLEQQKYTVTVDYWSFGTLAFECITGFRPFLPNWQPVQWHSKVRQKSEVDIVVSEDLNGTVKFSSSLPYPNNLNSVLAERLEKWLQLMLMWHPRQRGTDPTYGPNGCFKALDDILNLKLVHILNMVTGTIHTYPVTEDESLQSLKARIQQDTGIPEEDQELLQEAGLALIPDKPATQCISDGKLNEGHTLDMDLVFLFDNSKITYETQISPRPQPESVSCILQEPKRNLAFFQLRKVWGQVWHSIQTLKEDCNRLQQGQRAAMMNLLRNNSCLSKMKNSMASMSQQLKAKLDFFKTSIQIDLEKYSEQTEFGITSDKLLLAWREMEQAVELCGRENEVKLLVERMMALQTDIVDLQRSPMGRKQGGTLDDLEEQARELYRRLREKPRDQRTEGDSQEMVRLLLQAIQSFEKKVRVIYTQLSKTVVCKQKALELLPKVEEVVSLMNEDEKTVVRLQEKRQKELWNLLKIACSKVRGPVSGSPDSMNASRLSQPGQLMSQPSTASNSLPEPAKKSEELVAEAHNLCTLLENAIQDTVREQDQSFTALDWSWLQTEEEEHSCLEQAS

Chain of INSRR (human) (P14616 whole entry, looked up): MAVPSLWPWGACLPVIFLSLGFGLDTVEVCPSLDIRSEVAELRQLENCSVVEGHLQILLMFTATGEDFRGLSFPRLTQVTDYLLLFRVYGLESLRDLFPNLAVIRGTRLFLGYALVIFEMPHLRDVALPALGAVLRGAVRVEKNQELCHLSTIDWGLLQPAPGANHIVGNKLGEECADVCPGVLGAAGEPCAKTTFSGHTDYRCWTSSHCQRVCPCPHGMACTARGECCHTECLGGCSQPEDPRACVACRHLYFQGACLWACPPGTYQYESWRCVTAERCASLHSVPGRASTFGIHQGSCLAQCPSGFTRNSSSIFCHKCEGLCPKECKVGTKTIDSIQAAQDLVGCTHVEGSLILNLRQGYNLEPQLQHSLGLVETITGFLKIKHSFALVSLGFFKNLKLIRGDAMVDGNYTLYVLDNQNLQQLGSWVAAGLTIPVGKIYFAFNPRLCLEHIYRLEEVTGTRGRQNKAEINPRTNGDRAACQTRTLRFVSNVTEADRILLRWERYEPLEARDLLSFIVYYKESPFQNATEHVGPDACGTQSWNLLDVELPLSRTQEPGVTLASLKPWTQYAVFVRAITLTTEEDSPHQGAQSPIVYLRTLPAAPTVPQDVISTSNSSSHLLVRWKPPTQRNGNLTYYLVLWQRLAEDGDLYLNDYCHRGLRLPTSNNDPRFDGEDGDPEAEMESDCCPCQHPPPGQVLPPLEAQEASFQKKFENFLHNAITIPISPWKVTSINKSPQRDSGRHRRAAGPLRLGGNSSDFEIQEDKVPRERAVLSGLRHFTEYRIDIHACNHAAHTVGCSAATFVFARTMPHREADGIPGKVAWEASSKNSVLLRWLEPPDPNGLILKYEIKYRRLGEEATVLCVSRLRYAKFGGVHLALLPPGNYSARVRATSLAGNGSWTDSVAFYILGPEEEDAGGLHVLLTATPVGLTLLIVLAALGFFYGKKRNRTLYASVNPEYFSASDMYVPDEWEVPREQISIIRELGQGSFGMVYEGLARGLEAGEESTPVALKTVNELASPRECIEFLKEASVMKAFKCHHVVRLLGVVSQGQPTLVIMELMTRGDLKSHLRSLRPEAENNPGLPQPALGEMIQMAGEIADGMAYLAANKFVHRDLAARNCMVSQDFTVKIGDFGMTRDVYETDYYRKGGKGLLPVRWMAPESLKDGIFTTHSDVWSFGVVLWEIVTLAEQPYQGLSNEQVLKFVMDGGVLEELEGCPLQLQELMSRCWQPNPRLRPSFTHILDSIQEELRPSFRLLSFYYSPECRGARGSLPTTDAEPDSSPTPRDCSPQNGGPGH
Chain of NTRK1 (human) (P04629 whole entry, looked up): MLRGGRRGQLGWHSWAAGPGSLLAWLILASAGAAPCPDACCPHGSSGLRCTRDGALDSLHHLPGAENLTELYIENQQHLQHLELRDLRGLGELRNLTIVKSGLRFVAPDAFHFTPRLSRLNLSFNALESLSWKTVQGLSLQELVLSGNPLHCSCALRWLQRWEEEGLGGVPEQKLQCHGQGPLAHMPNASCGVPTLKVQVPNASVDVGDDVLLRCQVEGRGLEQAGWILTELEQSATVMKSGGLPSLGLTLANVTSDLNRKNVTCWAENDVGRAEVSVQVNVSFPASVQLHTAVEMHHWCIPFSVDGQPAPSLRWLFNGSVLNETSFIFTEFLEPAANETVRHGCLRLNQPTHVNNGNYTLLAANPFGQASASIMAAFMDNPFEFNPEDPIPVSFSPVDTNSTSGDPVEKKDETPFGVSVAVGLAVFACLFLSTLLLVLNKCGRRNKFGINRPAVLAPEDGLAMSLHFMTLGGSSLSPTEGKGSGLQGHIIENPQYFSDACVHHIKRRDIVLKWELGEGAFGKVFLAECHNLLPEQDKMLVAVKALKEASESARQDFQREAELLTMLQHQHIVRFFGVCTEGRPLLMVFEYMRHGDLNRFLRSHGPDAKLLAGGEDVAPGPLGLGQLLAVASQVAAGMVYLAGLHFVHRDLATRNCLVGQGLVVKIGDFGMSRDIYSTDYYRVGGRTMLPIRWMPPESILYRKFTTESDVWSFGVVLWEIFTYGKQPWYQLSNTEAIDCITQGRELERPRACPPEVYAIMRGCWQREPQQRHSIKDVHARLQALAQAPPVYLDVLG

A residual activity (MYLK (human); compound 1.0 µM) of 109%, a residual activity (TTK (human); compound 1.0 µM) of 90% and a residual activity (TTK (human); compound 10.0 µM) of 86% were found for `NCC(=O)Nc1ccc(-n2nc(C(F)(F)F)cc2-c2ccc3c(ccc4ccccc43)c2)cc1` in this work. For the same compound, the residual activity (LCK (mouse); compound 1.0 µM) was 84%, the residual activity (LCK (mouse); compound 10.0 µM) was 247% and the residual activity (NTRK1 (human); compound 1.0 µM) was 90%. For the same compound, the residual activity (NTRK1 (human); compound 10.0 µM) was 90%, the residual activity (PRKCZ (human); compound 1.0 µM) was 94% and the residual activity (PRKCZ (human); compound 10.0 µM) was 61%. For the same compound, the residual activity (CSK (human); compound 1.0 µM) was 97%, the residual activity (CSK (human); compound 10.0 µM) was 85% and the residual activity (INSRR (human); compound 1.0 µM) was 91%. The residual activity (INSRR (human); compound 10.0 µM) was 75%, the residual activity (AURKB (human); compound 1.0 µM) was 93% and the residual activity (AURKB (human); compound 10.0 µM) was 88%. It also gave a residual activity (MAPK1 (human); compound 1.0 µM) of 101%, a residual activity (MAPK1 (human); compound 10.0 µM) of 88% and a residual activity (MAP2K2 (human); compound 1.0 µM) of 123%. The residual activity (MAP2K2 (human); compound 10.0 µM) was 113%, the residual activity (FGFR1 (human); compound 1.0 µM) was 111% and the residual activity (PHKG1 (human); compound 1.0 µM) was 79%. For the same compound, the residual activity (PHKG1 (human); compound 10.0 µM) was 72%, the residual activity (MINK1 (human); compound 1.0 µM) was 78% and the residual activity (MINK1 (human); compound 10.0 µM) was 47%. The residual activity (GSK3B (human); compound 1.0 µM) was 110%, the residual activity (GSK3B (human); compound 10.0 µM) was 119% and the residual activity (MARK4 (human); compound 1.0 µM) was 88%. The residual activity (MARK4 (human); compound 10.0 µM) was 102%, the residual activity (EEF2K (human); compound 10.0 µM) was 75% and the residual activity (MAPK13 (human); compound 1.0 µM) was 96%. It also gave a residual activity (MAPK13 (human); compound 10.0 µM) of 70%, a residual activity (MAP3K9 (human); compound 1.0 µM) of 99% and a residual activity (MAP3K9 (human); compound 10.0 µM) of 80%. The residual activity (RPS6KA1 KD1 KD2 (human); compound 1.0 µM) was 87%, the residual activity (RPS6KA1 KD1 KD2 (human); compound 10.0 µM) was 63% and the residual activity (SRC (human); compound 1.0 µM) was 103%. For the same compound, the residual activity (SRC (human); compound 10.0 µM) was 135%, the residual activity (PRKACA (human); compound 1.0 µM) was 100% and the residual activity (PRKACA (human); compound 10.0 µM) was 93%. For the same compound, the residual activity (CHEK2 (human); compound 10.0 µM) was 76%, the residual activity (MAPKAPK3 (human); compound 1.0 µM) was 103% and the residual activity (MAPKAPK3 (human); compound 10.0 µM) was 97%. The residual activity (MELK (human); compound 1.0 µM) was 92%, the residual activity (MELK (human); compound 10.0 µM) was 75% and the residual activity (DAPK1 (human); compound 1.0 µM) was 95%. It also gave a residual activity (DAPK1 (human); compound 10.0 µM) of 43%, a residual activity (ROCK2 (rat); compound 1.0 µM) of 88% and a residual activity (ROCK2 (rat); compound 10.0 µM) of 87%. For the same compound, the residual activity (EPHB3 (human); compound 1.0 µM) was 72%, the residual activity (EPHB3 (human); compound 10.0 µM) was 82% and the residual activity (PRKAA1 or PRKAA2 (rat); compound 1.0 µM) was 99%. It also gave a residual activity (PRKAA1 or PRKAA2 (rat); compound 10.0 µM) of 105%, a residual activity (ERBB4 (human); compound 1.0 µM) of 106% and a residual activity (ERBB4 (human); compound 10.0 µM) of 104%. For the same compound, the residual activity (MKNK2 (human); compound 1.0 µM) was 91%, the residual activity (MKNK2 (human); compound 10.0 µM) was 109% and the residual activity (CDK2 CCNA2 (human); compound 1.0 µM) was 95%. It also gave a residual activity (CDK2 CCNA2 (human); compound 10.0 µM) of 95%, a residual activity (MKNK1 (human); compound 1.0 µM) of 86% and a residual activity (MKNK1 (human); compound 10.0 µM) of 83%. For the same compound, the residual activity (CSNK2A1 (human); compound 1.0 µM) was 111%, the residual activity (CSNK2A1 (human); compound 10.0 µM) was 79% and the residual activity ([1]; compound 1.0 µM) was 103%. It also gave a residual activity ([1]; compound 10.0 µM) of 99%, a residual activity (IKBKB (human); compound 1.0 µM) of 87% and a residual activity (IKBKB (human); compound 10.0 µM) of 88%.

A residual activity (MYLK (human); compound 1.0 µM) of 98%, a residual activity (MYLK (human); compound 50.0 µM) of 96% and a residual activity (TTK (human); compound 10.0 µM) of 101% were found for `CCCC(CCC)C(=O)O` in this work. The residual activity (TTK (human); compound 50.0 µM) was 82%, the residual activity (LCK (mouse); compound 1.0 µM) was 84% and the residual activity (LCK (mouse); compound 50.0 µM) was 106%. It also gave a residual activity (NTRK1 (human); compound 10.0 µM) of 91%, a residual activity (NTRK1 (human); compound 50.0 µM) of 89% and a residual activity (PRKCZ (human); compound 10.0 µM) of 101%. It also gave a residual activity (PRKCZ (human); compound 50.0 µM) of 93%, a residual activity (CSK (human); compound 10.0 µM) of 91% and a residual activity (CSK (human); compound 50.0 µM) of 93%. It also gave a residual activity (INSRR (human); compound 10.0 µM) of 101%, a residual activity (INSRR (human); compound 50.0 µM) of 101% and a residual activity (AURKB (human); compound 1.0 µM) of 90%. For the same compound, the residual activity (AURKB (human); compound 10.0 µM) was 99%, the residual activity (AURKB (human); compound 50.0 µM) was 83% and the residual activity (MAPK1 (human); compound 1.0 µM) was 98%. It also gave a residual activity (MAPK1 (human); compound 10.0 µM) of 77%, a residual activity (MAPK1 (human); compound 50.0 µM) of 80% and a residual activity (MAP2K2 (human); compound 10.0 µM) of 102%. The residual activity (MAP2K2 (human); compound 50.0 µM) was 92%, the residual activity (FGFR1 (human); compound 10.0 µM) was 104% and the residual activity (FGFR1 (human); compound 50.0 µM) was 104%. It also gave a residual activity (PHKG1 (human); compound 1.0 µM) of 110%, a residual activity (PHKG1 (human); compound 10.0 µM) of 89% and a residual activity (PHKG1 (human); compound 50.0 µM) of 81%. The residual activity (MINK1 (human); compound 10.0 µM) was 68%, the residual activity (MINK1 (human); compound 50.0 µM) was 76% and the residual activity (GSK3B (human); compound 1.0 µM) was 74%. The residual activity (GSK3B (human); compound 10.0 µM) was 79%, the residual activity (GSK3B (human); compound 50.0 µM) was 76% and the residual activity (MARK4 (human); compound 10.0 µM) was 106%. For the same compound, the residual activity (MARK4 (human); compound 50.0 µM) was 106%, the residual activity (EEF2K (human); compound 1.0 µM) was 97% and the residual activity (EEF2K (human); compound 10.0 µM) was 61%. For the same compound, the residual activity (EEF2K (human); compound 50.0 µM) was 71%, the residual activity (MAPK13 (human); compound 1.0 µM) was 106% and the residual activity (MAPK13 (human); compound 10.0 µM) was 95%. It also gave a residual activity (MAPK13 (human); compound 50.0 µM) of 92%, a residual activity (MAP3K9 (human); compound 10.0 µM) of 94% and a residual activity (MAP3K9 (human); compound 50.0 µM) of 102%. The residual activity (RPS6KA1 KD1 KD2 (human); compound 1.0 µM) was 99%, the residual activity (RPS6KA1 KD1 KD2 (human); compound 10.0 µM) was 100% and the residual activity (RPS6KA1 KD1 KD2 (human); compound 50.0 µM) was 96%. It also gave a residual activity (SRC (human); compound 1.0 µM) of 100%, a residual activity (SRC (human); compound 10.0 µM) of 87% and a residual activity (SRC (human); compound 50.0 µM) of 94%. It also gave a residual activity (PRKACA (human); compound 1.0 µM) of 82%, a residual activity (PRKACA (human); compound 10.0 µM) of 91% and a residual activity (PRKACA (human); compound 50.0 µM) of 93%. It also gave a residual activity (CHEK2 (human); compound 1.0 µM) of 83%, a residual activity (CHEK2 (human); compound 10.0 µM) of 97% and a residual activity (CHEK2 (human); compound 50.0 µM) of 95%. It also gave a residual activity (MAPKAPK3 (human); compound 1.0 µM) of 90%, a residual activity (MAPKAPK3 (human); compound 10.0 µM) of 93% and a residual activity (MAPKAPK3 (human); compound 50.0 µM) of 97%. It also gave a residual activity (MELK (human); compound 10.0 µM) of 97%, a residual activity (MELK (human); compound 50.0 µM) of 92% and a residual activity (DAPK1 (human); compound 10.0 µM) of 97%. For the same compound, the residual activity (DAPK1 (human); compound 50.0 µM) was 94%, the residual activity (ROCK2 (rat); compound 1.0 µM) was 84% and the residual activity (ROCK2 (rat); compound 10.0 µM) was 97%. It also gave a residual activity (ROCK2 (rat); compound 50.0 µM) of 89%, a residual activity (EPHB3 (human); compound 50.0 µM) of 96% and a residual activity (PRKAA1 or PRKAA2 (rat); compound 1.0 µM) of 98%. For the same compound, the residual activity (PRKAA1 or PRKAA2 (rat); compound 10.0 µM) was 94%, the residual activity (PRKAA1 or PRKAA2 (rat); compound 50.0 µM) was 91% and the residual activity (ERBB4 (human); compound 10.0 µM) was 80%. The residual activity (ERBB4 (human); compound 50.0 µM) was 76%, the residual activity (MKNK2 (human); compound 1.0 µM) was 90% and the residual activity (MKNK2 (human); compound 10.0 µM) was 106%. It also gave a residual activity (MKNK2 (human); compound 50.0 µM) of 126%, a residual activity (CDK2 CCNA2 (human); compound 1.0 µM) of 90% and a residual activity (CDK2 CCNA2 (human); compound 10.0 µM) of 76%. For the same compound, the residual activity (CDK2 CCNA2 (human); compound 50.0 µM) was 80%, the residual activity (MKNK1 (human); compound 1.0 µM) was 86% and the residual activity (MKNK1 (human); compound 10.0 µM) was 112%. It also gave a residual activity (CSNK2A1 (human); compound 10.0 µM) of 86%, a residual activity (CSNK2A1 (human); compound 50.0 µM) of 86% and a residual activity ([1]; compound 10.0 µM) of 84%. The residual activity ([1]; compound 50.0 µM) was 85%, the residual activity (IKBKB (human); compound 1.0 µM) was 86% and the residual activity (IKBKB (human); compound 10.0 µM) was 79%. It also gave a residual activity (IKBKB (human); compound 50.0 µM) of 88%.
